Patent US5288709A, “Erythromycin derivatives” (priority 1991, dated 1994)
≈ marks a conversion by molar mass, not a printed value.

Columns and labels:
[1] = Pharmacokinetic evaluation in dogs after a 10 mg/kg dose; conditions: dog, plasma; for half-life: t1/2 (biological half life); for bioavailability: % ABS (percent absorbance), from AUC (absolute bioavailability); for Cmax: Cmax (maximum concentration in blood); for Tmax: Tmax (time to achieve maximum concentration in blood)
Procedure: Selected compounds of the present invention were formulated as solutions in dilute lactobionic acid at a concentration of 10 or 20 mg/ml. Groups of two or three dogs were given a 10 mg macrolide/kg intravenous bolus or oral dose (by gavage). Plasma samples, obtained at selected time points from 15 minutes to 32 hours after dosing, were assayed using reverse phase HPLC with electrochemical detection (parent drug) and microbiological assay (total microbiological activity). Plasma concentration time curves were subjected to multi exponential curve fitting to determine terminal elimination half life values. Area under the curve (AUC) values, calculated by the trapezoidal method, were used to calculate absolute bioavailability.

[2] = tested on: Pseudomonas aeruginosa K799/WT; experiment: In-vitro antimicrobial activity primary screen (agar dilution MIC); format: cell-based; conditions: Pseudomonas aeruginosa, K799/WT, 24 h
Method in brief: (§1)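 Twelve plates of successive aqueous compound dilutions in Brain Heart Infusion agar were spot-inoculated by Steers replicator with 1:100 culture dilutions (1:10 for slow growers such as Streptococcus) and incubated at 35-37° C for 20-24 hours. MIC was the lowest concentration giving no growth, slight haze or sparse colonies.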

[3] = tested on: Pseudomonas aeruginosa K799/61; experiment: as above; format: cell-based; conditions: Pseudomonas aeruginosa, K799/61, 24 h, Pseudomonas aeruginosa K799/61; BHI agar, 20-24 h
Method in brief: as §1

Staphylococcus aureus 45 = experiment: as above; format: cell-based; conditions: BHI agar, 20-24 h, read-out: MIC
Method in brief: as §1

Escherichia coli H560 = experiment: as above; format: cell-based; conditions: Escherichia coli, H560, 24 h, Escherichia coli H560; BHI agar, 20-24 h
Method in brief: as §1

[4] = tested on: Micrococcus luteus ATCC 9341; experiment: as above; format: cell-based; conditions: Micrococcus luteus, ATCC9341, 24 h, BHI agar, 20-24 h
Method in brief: as §1

Escherichia coli DC-2 = experiment: as above; format: cell-based; conditions: Escherichia coli, DC2, 24 h, Escherichia coli DC-2; BHI agar, 20-24 h
Method in brief: as §1

[5] = tested on: Pseudomonas aeruginosa BMH10; experiment: as above; format: cell-based; conditions: Pseudomonas aeruginosa, BMH10, 24 h, BHI agar, 20-24 h
Method in brief: as §1

[6] = tested on: Staphylococcus aureus A5177; experiment: as above; format: cell-based; conditions: Staphylococcus aureus, A5177, 24 h, Staphylococcus aureus A5177; BHI agar, 20-24 h
Method in brief: as §1

Escherichia coli JUHL = experiment: as above; format: cell-based; conditions: Escherichia coli, 24 h, Escherichia coli JUHL; BHI agar, 20-24 h
Method in brief: as §1

[7] = tested on: Micrococcus luteus ATCC 4698; experiment: as above; format: cell-based; conditions: ATCC4698, BHI agar, 20-24 h, read-out: MIC
Method in brief: as §1

[8] = tested on: Pseudomonas aeruginosa A5007; experiment: as above; format: cell-based; conditions: Pseudomonas aeruginosa, A5007, 24 h
Method in brief: as §1

[9] = tested on: Staphylococcus epidermidis 3519; experiment: as above; format: cell-based; conditions: BHI agar, 20-24 h, read-out: MIC
Method in brief: as §1

Escherichia coli SS = experiment: as above; format: cell-based; conditions: Escherichia coli, 24 h, BHI agar, 20-24 h
Method in brief: as §1

[10] = tested on: Enterococcus faecium ATCC 8043; experiment: as above; format: cell-based; conditions: ATCC8043; Enterococcus faecium ATCC 8043; BHI agar, 20-24 h; read-out: MIC
Method in brief: as §1

[11] = tested on: Providencia stuartii CMX 640; experiment: as above; format: cell-based; conditions: Providencia stuartii, CMX640, 24 h
Method in brief: as §1

Pseudomonas cepacia 2961 = experiment: as above; format: cell-based; conditions: Burkholderia cepacia, 2961, 24 h, BHI agar, 20-24 h
Method in brief: as §1

[12] = tested on: Staphylococcus aureus ATCC 6538P; experiment: as above; format: cell-based; conditions: Staphylococcus aureus, ATCC6538P, 24 h, BHI agar, 20-24 h
Method in brief: as §1

[13] = tested on: Streptococcus pyrogenes 2548 INDUC; experiment: as above; format: cell-based; conditions: BHI agar, 20-24 h, read-out: MIC
Method in brief: as §1

[14] = tested on: Enterobacter aerogenes ATCC 13048; experiment: as above; format: cell-based; conditions: Klebsiella aerogenes, ATCC13048, 24 h
Method in brief: as §1

[15] = tested on: Streptococcus pyrogenes EES61; experiment: as above; format: cell-based; conditions: BHI agar, 20-24 h, read-out: MIC
Method in brief: as §1

[16] = tested on: Streptococcus agalactiae CMX 508; experiment: as above; format: cell-based; conditions: CMX508, BHI agar, 20-24 h, read-out: MIC
Method in brief: as §1

[17] = tested on: Staphylococcus aureus 45 RAR2; experiment: as above; format: cell-based; conditions: Staphylococcus aureus, 45RAR2, 24 h, BHI agar, 20-24 h
Method in brief: as §1

[18] = tested on: Streptococcus bovis A5169; experiment: as above; format: cell-based; conditions: Streptococcus equinus, BHI agar, 20-24 h, read-out: MIC
Method in brief: as §1

[19] = po, oral 10 mg/kg, HPLC (parent drug)
[20] = po, oral 10 mg/kg, microbiological assay

## CC[C@H]1OC(=O)[C@H](C)[C@@H](O[C@H]2C[C@@](C)(OC)[C@H](N)[C@H](C)O2)[C@H](C)[C@@H](O[C@@H]2O[C@H](C)C[C@H](N(C)C)[C@H]2O)[C@](C)(O)C[C@@H](C)[C@@H]2O[C@@]1(C)[C@@H](O)[C@H]2C [Example 13, (4"R,9S,11S) 4"-Amino-9-deoxo-4",12-dideoxy-9,12-epoxyerythromycin A]
[1]; iv, IV 10 mg/kg, HPLC (parent drug)
  half-life: 9.9 h
[1]; iv, IV 10 mg/kg, microbiological assay
  half-life: 18.3 h
[1]; [19]
  bioavailability: 68%
  Cmax: 1600 ng/mL
  Tmax: 0.4 h
  half-life: 9.6 h
[1]; [20]
  bioavailability: 58%
  Cmax: 1700 ng/mL
  Tmax: 0.4 h
  half-life: 9.1 h
[2]
  MIC: 100 µg/mL (≈ 139 µM)
[3]
  MIC: 1.56 µg/mL (≈ 2.18 µM)
Staphylococcus aureus 45
  MIC: 0.2 µg/mL (≈ 0.279 µM)
Escherichia coli H560
  MIC: 12.5 µg/mL (≈ 17.4 µM)
[4]
  MIC: 0.01 µg/mL (≈ 0.0139 µM)
Escherichia coli DC-2
  MIC: 50 µg/mL (≈ 69.7 µM)
[5]
  MIC: 100 µg/mL (≈ 139 µM)
[6]
  MIC: 0.78 µg/mL (≈ 1.09 µM)
Escherichia coli JUHL
  MIC: 50 µg/mL (≈ 69.7 µM)
[7]
  MIC: 0.05 µg/mL (≈ 0.0697 µM)
[8]
  MIC: > 100 µg/mL
[9]
  MIC: 0.2 µg/mL (≈ 0.279 µM)
Escherichia coli SS
  MIC: 0.2 µg/mL (≈ 0.279 µM)
[10]
  MIC: 0.05 µg/mL (≈ 0.0697 µM)
[11]
  MIC: > 100 µg/mL
Pseudomonas cepacia 2961
  MIC: > 100 µg/mL
[12]
  MIC: 0.2 µg/mL (≈ 0.279 µM)
[13]
  MIC: 0.78 µg/mL (≈ 1.09 µM)
[14]
  MIC: 100 µg/mL (≈ 139 µM)
[15]
  MIC: < 0.005 µg/mL
[16]
  MIC: 0.02 µg/mL (≈ 0.0279 µM)
[17]
  MIC: 0.2 µg/mL (≈ 0.279 µM)
[18]
  MIC: 0.01 µg/mL (≈ 0.0139 µM)
